Earlier results in article PMC4104431 (Nuclear medicine and biology, 2014).

Columns and labels:
CXCR4 = CXCR4 (Homo sapiens, UniProt P61073)
Sequence of CXCR4 (P61073 whole entry): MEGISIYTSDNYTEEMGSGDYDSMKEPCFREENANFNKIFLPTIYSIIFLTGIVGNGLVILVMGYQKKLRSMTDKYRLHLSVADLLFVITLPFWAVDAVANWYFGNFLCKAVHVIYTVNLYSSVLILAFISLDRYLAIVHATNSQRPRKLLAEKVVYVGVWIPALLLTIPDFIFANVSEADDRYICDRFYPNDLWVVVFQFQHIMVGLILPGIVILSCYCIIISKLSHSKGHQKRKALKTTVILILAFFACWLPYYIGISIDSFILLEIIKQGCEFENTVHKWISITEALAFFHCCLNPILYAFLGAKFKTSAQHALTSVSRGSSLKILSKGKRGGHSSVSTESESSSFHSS

Row | Metabolic stability | Fold increase in affinity for CXCR4 when bound to Cu(II) (CXCR4) | Structure (SMILES)
1 | metabolically stable | 7 fold | c1cc(CN2CCCNCCNCCCNCC2)ccc1CN1CCCNCCNCCCNCC1 [AMD3100]
2 | metabolically stable | – | c1ccc(CNCc2ccc(CN3CCCNCCNCCCNCC3)cc2)nc1 [AMD3465]
